Like-named read-outs stand apart in the source and are kept apart here.

Common to all, as to test: Kinase binding assay (kinase-tagged T7 phage, qPCR), Kd
On the technique in general: Quantitative PCR measures a nucleic acid by following its amplification.

One test has as its target T1, FGFR3 (Homo sapiens, UniProt P22607).
T1 construct: made in house; host or cells: E. coli derived from BL21, infected with T7 phage
The settings on record: read-out: FGFR3 (Kd nM).

The target in the next test is T2, FGFR4 (Homo sapiens, UniProt P22455).
T2 construct: made in house; host or cells: E. coli derived from BL21, infected with T7 phage
The settings on record: read-out: FGFR4 (Kd nM).

The next test concerns the target T3, FGFR1 (Homo sapiens, UniProt P11362).
T3 construct: made in house; host or cells: E. coli derived from BL21, infected with T7 phage
The settings on record: read-out: FGFR1 (Kd nM).

For another test, the target named is T4, FGFR2 (Homo sapiens, UniProt P21802).
T4 construct: made in house; host or cells: E. coli derived from BL21, infected with T7 phage
The settings on record: read-out: FGFR2 (Kd nM).

T4 sequence (P21802 22-821): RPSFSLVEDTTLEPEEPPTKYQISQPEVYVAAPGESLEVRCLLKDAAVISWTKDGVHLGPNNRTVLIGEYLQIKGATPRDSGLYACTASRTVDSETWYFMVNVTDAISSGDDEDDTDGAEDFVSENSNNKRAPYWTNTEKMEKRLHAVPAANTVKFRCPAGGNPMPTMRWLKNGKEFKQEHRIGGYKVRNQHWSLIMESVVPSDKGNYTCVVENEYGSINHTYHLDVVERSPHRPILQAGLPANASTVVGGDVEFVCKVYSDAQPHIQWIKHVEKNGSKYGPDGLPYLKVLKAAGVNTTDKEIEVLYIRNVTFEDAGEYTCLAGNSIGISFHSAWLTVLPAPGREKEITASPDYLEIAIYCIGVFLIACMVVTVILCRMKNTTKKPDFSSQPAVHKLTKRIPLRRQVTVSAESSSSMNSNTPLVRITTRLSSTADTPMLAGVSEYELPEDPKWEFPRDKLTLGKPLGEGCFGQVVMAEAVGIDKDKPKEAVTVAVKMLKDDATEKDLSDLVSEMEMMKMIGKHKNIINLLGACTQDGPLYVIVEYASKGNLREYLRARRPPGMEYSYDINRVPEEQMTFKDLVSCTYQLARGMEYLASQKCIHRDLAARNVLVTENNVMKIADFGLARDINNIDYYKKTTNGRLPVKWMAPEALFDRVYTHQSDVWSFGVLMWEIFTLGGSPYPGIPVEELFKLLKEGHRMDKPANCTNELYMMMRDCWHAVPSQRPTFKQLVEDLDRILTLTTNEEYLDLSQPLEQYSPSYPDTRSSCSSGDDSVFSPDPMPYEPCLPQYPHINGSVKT
T1 sequence (P22607 23-806): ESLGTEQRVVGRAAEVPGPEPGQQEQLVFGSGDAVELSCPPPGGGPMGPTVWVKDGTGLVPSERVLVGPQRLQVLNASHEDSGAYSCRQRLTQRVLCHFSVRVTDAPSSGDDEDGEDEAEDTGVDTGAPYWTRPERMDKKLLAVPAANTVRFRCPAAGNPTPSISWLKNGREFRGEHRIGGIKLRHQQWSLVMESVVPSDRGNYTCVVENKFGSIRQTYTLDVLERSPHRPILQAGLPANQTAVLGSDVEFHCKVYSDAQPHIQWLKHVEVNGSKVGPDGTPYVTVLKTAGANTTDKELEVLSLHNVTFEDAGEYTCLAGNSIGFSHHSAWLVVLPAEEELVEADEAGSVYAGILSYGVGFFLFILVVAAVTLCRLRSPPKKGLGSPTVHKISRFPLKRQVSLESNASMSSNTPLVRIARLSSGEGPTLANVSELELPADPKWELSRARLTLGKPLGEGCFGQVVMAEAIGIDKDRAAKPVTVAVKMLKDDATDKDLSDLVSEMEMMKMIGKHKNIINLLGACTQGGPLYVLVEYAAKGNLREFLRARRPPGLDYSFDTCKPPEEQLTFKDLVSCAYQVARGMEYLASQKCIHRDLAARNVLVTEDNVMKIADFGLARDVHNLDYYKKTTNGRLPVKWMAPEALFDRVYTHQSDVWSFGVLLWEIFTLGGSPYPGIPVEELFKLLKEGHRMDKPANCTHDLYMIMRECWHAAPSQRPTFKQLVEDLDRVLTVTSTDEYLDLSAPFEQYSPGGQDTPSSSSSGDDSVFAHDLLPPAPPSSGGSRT
T2 sequence (P22455 22-802): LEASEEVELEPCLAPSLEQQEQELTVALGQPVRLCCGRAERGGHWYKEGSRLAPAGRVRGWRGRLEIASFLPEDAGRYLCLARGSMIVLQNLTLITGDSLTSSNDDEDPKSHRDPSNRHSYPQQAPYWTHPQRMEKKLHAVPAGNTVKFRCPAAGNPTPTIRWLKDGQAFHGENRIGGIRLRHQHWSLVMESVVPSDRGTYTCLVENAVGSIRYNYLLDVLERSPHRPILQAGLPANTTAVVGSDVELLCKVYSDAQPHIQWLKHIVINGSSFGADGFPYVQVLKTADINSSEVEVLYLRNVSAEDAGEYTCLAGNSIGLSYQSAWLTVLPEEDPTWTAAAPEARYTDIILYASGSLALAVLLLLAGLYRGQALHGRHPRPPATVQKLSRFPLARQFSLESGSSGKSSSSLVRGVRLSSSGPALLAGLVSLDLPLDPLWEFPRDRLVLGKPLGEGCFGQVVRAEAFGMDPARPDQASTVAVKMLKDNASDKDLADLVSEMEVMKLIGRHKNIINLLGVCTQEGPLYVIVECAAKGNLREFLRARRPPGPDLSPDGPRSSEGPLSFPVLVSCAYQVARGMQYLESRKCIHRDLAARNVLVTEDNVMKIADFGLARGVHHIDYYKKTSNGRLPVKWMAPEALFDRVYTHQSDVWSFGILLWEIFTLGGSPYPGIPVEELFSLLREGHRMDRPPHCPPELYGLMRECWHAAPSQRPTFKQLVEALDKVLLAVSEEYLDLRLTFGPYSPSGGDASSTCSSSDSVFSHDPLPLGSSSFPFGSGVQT
T3 sequence (P11362 22-822): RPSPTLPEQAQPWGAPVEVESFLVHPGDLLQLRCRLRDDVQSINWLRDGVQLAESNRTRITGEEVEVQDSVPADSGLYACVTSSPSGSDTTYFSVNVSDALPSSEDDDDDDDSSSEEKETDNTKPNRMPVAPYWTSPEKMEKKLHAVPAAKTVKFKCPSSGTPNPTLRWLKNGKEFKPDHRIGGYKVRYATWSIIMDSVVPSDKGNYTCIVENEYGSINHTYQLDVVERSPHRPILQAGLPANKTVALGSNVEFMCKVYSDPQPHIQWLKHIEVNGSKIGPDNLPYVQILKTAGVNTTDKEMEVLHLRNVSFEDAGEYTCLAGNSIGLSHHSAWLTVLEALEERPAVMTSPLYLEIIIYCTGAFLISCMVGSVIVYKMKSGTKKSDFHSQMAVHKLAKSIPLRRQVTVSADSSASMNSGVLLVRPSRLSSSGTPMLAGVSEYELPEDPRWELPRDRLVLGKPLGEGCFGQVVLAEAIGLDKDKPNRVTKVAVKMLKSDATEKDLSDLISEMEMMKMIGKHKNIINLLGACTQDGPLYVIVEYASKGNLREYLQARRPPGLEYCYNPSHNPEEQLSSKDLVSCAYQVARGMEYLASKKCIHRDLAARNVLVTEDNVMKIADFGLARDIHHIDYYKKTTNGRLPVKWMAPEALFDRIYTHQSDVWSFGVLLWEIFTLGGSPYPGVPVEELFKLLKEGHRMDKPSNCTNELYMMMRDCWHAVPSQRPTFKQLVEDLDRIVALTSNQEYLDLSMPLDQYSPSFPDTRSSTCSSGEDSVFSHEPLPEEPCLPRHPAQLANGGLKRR

In the case of `CC(C)N1CCOc2ncc(-c3n[nH]c4ccc(O[C@H](C)c5c(Cl)cncc5Cl)cc34)cc21` [Example 141, (R)-7-(5-(1-(3,5-dichloropyridin-4-yl)ethoxy)-1H-indazol-3-yl)-1-isopropyl-2,3-dihydro-1H-pyrido[2,3-b][1,4]oxazine], the Kd was more than 1000 nM at FGFR3, 0.1 to 100 nM at FGFR4, more than 1000 nM at FGFR1 and more than 1000 nM at FGFR2.
Regarding `COc1ncc(-c2n[nH]c3ccc(O[C@H](C)c4c(Cl)cncc4Cl)cc23)cc1NC(=O)c1ccccn1` [Example 2, (R)—N-(5-(5-(1-(3,5-Dichloropyridin-4-yl)ethoxy)-1H-indazol-3-yl)-2-methoxypyridin-3-yl)picolinamide], the Kd is more than 1000 nM on FGFR3, 0.1 to 100 nM on FGFR4, more than 1000 nM at FGFR1 and more than 1000 nM on FGFR2.
For the compound `C[C@@H](Oc1ccc2[nH]nc(-c3cnc(N[C@H]4CCOC4)c(C#N)c3)c2c1)c1c(Cl)cncc1Cl` [Example 129, 5-(5-((R)-1-(3,5-dichloropyridin-4-yl)ethoxy)-1H-indazol-3-yl)-2-(((S)-tetrahydrofuran-3-yl)amino)nicotinonitrile], the Kd at FGFR3, at FGFR4, on FGFR1 and at FGFR2 was 0.1 to 100 nM throughout.
As to `C[C@@H](Oc1ccc2[nH]nc(-c3ccnc(NCCO)c3)c2c1)c1c(Cl)cncc1Cl` [Example 36, 2-[[4-[5-[(1R)-1-(3,5-Dichloro-4-pyridyl)ethoxy]-1H-indazol-3-yl]-2-pyridyl]amino]ethanol], the Kd on FGFR3, at FGFR4, at FGFR1 and on FGFR2 was 0.1 to 100 nM throughout.
In the case of `COc1c(C#N)cc(-c2n[nH]c3ccc(O[C@H](C)c4c(C)cnnc4C)cc23)cc1C#N` [Example 85, 5-[5-[(1R)-1-(3,5-dimethylpyridazin-4-yl)ethoxy]-1H-indazol-3-yl]-2-methoxy-benzene-1,3-dicarbonitrile], the Kd at FGFR3 was 250 to 1000 nM; at FGFR4, 0.1 to 100 nM; on FGFR1, more than 1000 nM; at FGFR2 it was more than 1000 nM.
Take `COCCOc1cc(C#N)cc(-c2n[nH]c3ccc(O[C@H](C)c4c(C)cnnc4C)cc23)c1` [Example 75, 3-[5-[(1R)-1-(3,5-dimethylpyridazin-4-yl)ethoxy]-1H-indazol-3-yl]-5-(2-methoxyethoxy)-benzonitrile]: the Kd at FGFR3 fell in the range of 0.1 to 100 nM; on FGFR4, 0.1 to 100 nM; at FGFR1, 100 to 250 nM; at FGFR2 it was 100 to 250 nM.
As to `CC(C)N1CCC(Oc2ccc(-c3n[nH]c4ccc(O[C@H](C)c5c(Cl)cncc5Cl)cc34)cc2C#N)CC1` [Example 124, 5-[5-[(1R)-1-(3,5-dichloro-4-pyridyl)ethoxy]-1H-indazol-3-yl]-2-[(1-isopropyl-4-piperidyl)oxy]benzonitrile], the Kd at FGFR3, at FGFR4, on FGFR1 and at FGFR2 was 0.1 to 100 nM each time.
`COc1cc2[nH]nc(-c3cnc4c(c3)NCCO4)c2cc1O[C@H](C)c1c(Cl)cncc1Cl` [Example 146]: the Kd at FGFR3, at FGFR4, at FGFR1 and at FGFR2 was 0.1 to 100 nM throughout.
Take `COc1cc(-c2n[nH]c3ccc(O[C@H](C)c4c(C)cnnc4C)cc23)cc(C#N)c1OC` [Example 76, 5-[5-[(1R)-1-(3,5-dimethylpyridazin-4-yl)ethoxy]-1H-indazol-3-yl]-2,3-dimethoxy-benzonitrile]: the dissociation constant (Kd) was 100 to 250 nM at FGFR3, 0.1 to 100 nM on FGFR4, 250 to 1000 nM on FGFR1 and more than 1000 nM at FGFR2.
Taken in the same sequence, the figures for `COc1cc(C#N)cc(-c2n[nH]c3ccc(O[C@@H](C)c4c(C)cnnc4C)cc23)c1` [Example 55, 3-[5-[(1S)-1-(3,5-dimethylpyridazin-4-yl)ethoxy]-1H-indazol-3-yl]-5-methoxy-benzonitrile] were more than 1000 nM, 250 to 1000 nM, more than 1000 nM and more than 1000 nM.
On to `C[C@@H](Oc1ccc2[nH]nc(-c3ccc(NC(=O)N4CCN(C)CC4)nc3)c2c1)c1c(Cl)cncc1Cl` [Example 19, N-[5-[5-[(1R)-1-(3,5-dichloro-4-pyridyl)ethoxy]-1H-indazol-3-yl]-2-pyridyl]-4-methyl-piperazine-1-carboxamide], for which the Kd on FGFR3, at FGFR4, on FGFR1 and on FGFR2 was 0.1 to 100 nM throughout.
As for `C[C@@H](Oc1ccc2[nH]nc(-c3cnc(N)c(OC(F)(F)F)c3)c2c1)c1c(Cl)cncc1Cl` [Example 32, 5-[5-[(1R)-1-(3,5-dichloro-4-pyridyl)ethoxy]-1H-indazol-3-yl]-3-(trifluoro-methoxy)pyridin-2-amine], the Kd at FGFR3 was more than 1000 nM; at FGFR4 it was 0.1 to 100 nM; at FGFR1, more than 1000 nM; on FGFR2 it was more than 1000 nM.
`Cc1cnnc(C)c1[C@@H](C)Oc1ccc2[nH]nc(-c3cnc(N(C)C)c(C#N)c3)c2c1` [Example 89, (R)-2-(dimethylamino)-5-(5-(1-(3,5-dimethylpyridazin-4-yl)ethoxy)-1H-indazol-3-yl)nicotinonitrile]: the Kd at FGFR3 was in the range of 0.1 to 100 nM; at FGFR4, 0.1 to 100 nM; on FGFR1, 100 to 250 nM; at FGFR2 it was 100 to 250 nM.
On to `COc1ncc(-c2n[nH]c3ccc(O[C@H](C)c4c(Cl)cncc4Cl)cc23)cc1N` [Example 1, 5-[5-[(1R)-1-(3,5-dichloro-4-pyridyl)ethoxy]-1H-indazol-3-yl]-2-methoxy-pyridin-3-amine], for which the Kd on FGFR3 fell in the range of 0.1 to 100 nM; at FGFR4 it was 0.1 to 100 nM; at FGFR1, 100 to 250 nM; at FGFR2, 100 to 250 nM.
Regarding `Cc1cnnc(C)c1[C@@H](C)Oc1ccc2[nH]nc(-c3cc(C#N)cc(OCC4CC4)c3)c2c1` [Example 78, 3-(cyclopropylmethoxy)-5-[5-[(1R)-1-(3,5-dimethylpyridazin-4-yl)ethoxy]-1H-indazol-3-yl]benzonitrile], the Kd was 250 to 1000 nM at FGFR3, 0.1 to 100 nM on FGFR4, more than 1000 nM at FGFR1 and more than 1000 nM on FGFR2.
Turning to `COc1cc(OCC2CC2)cc(-c2n[nH]c3ccc(O[C@H](C)c4c(C)cnnc4C)cc23)c1` [Example 68, 3-[3-(cyclopropyl-methoxy)-5-methoxy-phenyl]-5-[(1R)-1-(3,5-dimethylpyridazin-4-yl)ethoxy]-1H-indazole], the Kd at FGFR3 was more than 1000 nM; on FGFR4, 0.1 to 100 nM; on FGFR1, more than 1000 nM; on FGFR2 it was more than 1000 nM.
`C[C@@H](Oc1ccc2[nH]nc(-c3ccc(C(N)=O)nc3)c2c1)c1c(Cl)cncc1Cl` [Example 12, 5-[5-[(1R)-1-(3,5-dichloro-4-pyridyl)ethoxy]-1H-indazol-3-yl]pyridine-2-carboxamide]: the Kd at FGFR3, on FGFR4, at FGFR1 and at FGFR2 was 0.1 to 100 nM each time.
`C[C@@H](Oc1ccc2[nH]nc(-c3cnc4c(c3)N(Cc3ccccn3)CCO4)c2c1)c1c(Cl)cncc1Cl` [Example 48, 7-[5-[(1R)-1-(3,5-dichloro-4-pyridyl)ethoxy]-1H-indazol-3-yl]-1-(2-pyridyl-methyl)-2,3-dihydro-pyrido[2,3-b][1,4]oxazine]: the Kd at FGFR3 was 0.1 to 100 nM; at FGFR4 it was 250 to 1000 nM; at FGFR1, more than 1000 nM; at FGFR2, more than 1000 nM.
As to `C[C@@H](Oc1ccc2[nH]nc(-c3cnc(O[C@@H]4CCOC4)c(C#N)c3)c2c1)c1c(Cl)cncc1Cl` [Example 134, 5-(5-((R)-1-(3,5-dichloropyridin-4-yl)ethoxy)-1H-indazol-3-yl)-2-(((R)-tetrahydrofuran-3-yl)oxy)nicotinonitrile], the Kd at FGFR3 fell in the range of 0.1 to 100 nM; at FGFR4 it was 0.1 to 100 nM; at FGFR1, 100 to 250 nM; at FGFR2, 0.1 to 100 nM.
With `Cc1cc(-c2n[nH]c3ccc(O[C@H](C)c4c(Cl)cnc(C)c4Cl)cc23)cnc1O[C@H]1CCOC1` [Example 154, 5-[(1R)-1-(3,5-dichloro-2-methyl-4-pyridyl)ethoxy]-3-[5-methyl-6-[(3S)-tetrahydrofuran-3-yl]oxy-3-pyridyl]-1H-indazole], the Kd at FGFR3 lay within 0.1 to 100 nM; on FGFR4 it was 0.1 to 100 nM; on FGFR1, 250 to 1000 nM; at FGFR2 it was 250 to 1000 nM.
With `CCOCCOc1cc(C#N)cc(-c2n[nH]c3ccc(O[C@H](C)c4c(C)cnnc4C)cc23)c1` [Example 73, 3-[5-[(1R)-1-(3,5-dimethylpyridazin-4-yl)ethoxy]-1H-indazol-3-yl]-5-(2-ethoxyethoxy)-benzonitrile], the Kd on FGFR3 was 100 to 250 nM; at FGFR4 it was 0.1 to 100 nM; at FGFR1 it was more than 1000 nM; on FGFR2, 250 to 1000 nM.
Regarding `CCN1CCC2(CC1)CC(O)c1cc(-c3n[nH]c4ccc(O[C@H](C)c5c(Cl)cncc5Cl)cc34)ccc1O2` (stereo partly drawn) [Example 103, 6-[5-[(1R)-1-(3,5-Dichloro-4-pyridyl)ethoxy]-1H-indazol-3-yl]-1′-ethyl-spiro[chromane-2,4′-piperidine]-4-ol], the Kd at FGFR3 was 0.1 to 100 nM; at FGFR4, 0.1 to 100 nM; at FGFR1 (given as a number, not a class symbol), 45 nM; on FGFR2 it was 100 to 250 nM.
On to `C[C@@H](Oc1ccc2[nH]nc(-c3ccc(NC(=O)C4CC4)nc3)c2c1)c1c(Cl)cncc1Cl` [Example 11, (R)—N-(5-(5-(1-(3,5-Dichloropyridin-4-yl)ethoxy)-1H-indazol-3-yl)pyridin-2-yl)cyclopropanecarboxamide], for which the Kd on FGFR3 was 0.1 to 100 nM; on FGFR4 it was 0.1 to 100 nM; at FGFR1, 0.1 to 100 nM; at FGFR2 it was 100 to 250 nM.

Broadly, the Kd is the concentration at which binding is half-saturated.

Source of the values: patent US20240316022A1 (TYRA BIOSCIENCES, INC., priority 2021, published 2024).
